pEC50: −log10 of the molar value.
Key:
Type in all cases: cell-based
α2β1 = target: T1, α2β1 (Homo sapiens, UniProt P05556+P17301); assay: Jurkat cell adhesion to rat type I collagen; details: Jurkat cells, PMA
T1 construct: endogenous in cells; host or cells: Jurkat cells
Procedure: Binding studies using monoclonal antibodies to each of these integrins has shown that Jurkat cell adhesion to rat type I collagen is mediated predominantly through interaction with alpha2. […] The assay was carried out using a modification of a procedure previously described [Sadhu, et al., supra]. Immunlon 4 plates (Dynex Technologies, Chantilly, Va.) were coated overnight at 4° C. with (i) 50 μl rat type I collagen (Sigma) (20 μg/ml in CMF-PBS), (ii) anti-beta1 monoclonal antibody 3S3 (5 μg/ml) in bicarbonate buffer, pH 9.6, (iii) or bicarbonate buffer alone. Plates were washed once with 200 μl/well D-PBS and blocked with 1% BSA (100 μl/well) in D-PBS for 1 hr at room temperature. […] Adherent cells were fixed by additional of 50 μl/well 14% glutaraldehyde in D-PBS and incubation at room temperature for 2 hr. The plates were washed with dH2O and stained with 50 μl/well 0.5% crystal violet in 10% ethanol for 5 min at room temperature. The plates were washed in several changes of dH2O, after which 70% ethanol was added. Adherent cells were quantitated by determining absorbance at 570 nm and 410 nm using a […] 250 microplate spectrophotometer system (Molecular Devices, Sunnyvale Calif.). The percentage of cell binding was determined using the formula below. [formula] Data was normalized using the formula: [formula] […] These 21 compounds were further analyzed for specificity and toxicity. […] The assay was carried out in a manner similar to the collagen adhesion assay described above except that […] with VCAM-1/Ig instead of collagen. Binding to VCAM-1 was dependent on surface expression of α4β1.

Jurkat cells = assay: Jurkat cell toxicity (CellTiter 96 Aqueous One Solution); details: four hr or 24 hr incubation
Procedure: For 21 compounds, toxicity of Jurkat cells was assessed following a four hr or 24 hr incubation. […] A two-fold serial dilution series of each compound was tested in a concentration range of 40 μM to 0.15 μM.

α4β1 = α4β1 (Homo sapiens, UniProt P05556+P13612); assay: Jurkat cell binding to immobilized VCAM-1/Ig; set-up: endogenous in cells; host or cells: Jurkat cells; details: Jurkat cells; tested 0.15 μM to 20 μM; read-out: α7β1/VCAM EC50
Chain of α4β1 (P13612 34-1032): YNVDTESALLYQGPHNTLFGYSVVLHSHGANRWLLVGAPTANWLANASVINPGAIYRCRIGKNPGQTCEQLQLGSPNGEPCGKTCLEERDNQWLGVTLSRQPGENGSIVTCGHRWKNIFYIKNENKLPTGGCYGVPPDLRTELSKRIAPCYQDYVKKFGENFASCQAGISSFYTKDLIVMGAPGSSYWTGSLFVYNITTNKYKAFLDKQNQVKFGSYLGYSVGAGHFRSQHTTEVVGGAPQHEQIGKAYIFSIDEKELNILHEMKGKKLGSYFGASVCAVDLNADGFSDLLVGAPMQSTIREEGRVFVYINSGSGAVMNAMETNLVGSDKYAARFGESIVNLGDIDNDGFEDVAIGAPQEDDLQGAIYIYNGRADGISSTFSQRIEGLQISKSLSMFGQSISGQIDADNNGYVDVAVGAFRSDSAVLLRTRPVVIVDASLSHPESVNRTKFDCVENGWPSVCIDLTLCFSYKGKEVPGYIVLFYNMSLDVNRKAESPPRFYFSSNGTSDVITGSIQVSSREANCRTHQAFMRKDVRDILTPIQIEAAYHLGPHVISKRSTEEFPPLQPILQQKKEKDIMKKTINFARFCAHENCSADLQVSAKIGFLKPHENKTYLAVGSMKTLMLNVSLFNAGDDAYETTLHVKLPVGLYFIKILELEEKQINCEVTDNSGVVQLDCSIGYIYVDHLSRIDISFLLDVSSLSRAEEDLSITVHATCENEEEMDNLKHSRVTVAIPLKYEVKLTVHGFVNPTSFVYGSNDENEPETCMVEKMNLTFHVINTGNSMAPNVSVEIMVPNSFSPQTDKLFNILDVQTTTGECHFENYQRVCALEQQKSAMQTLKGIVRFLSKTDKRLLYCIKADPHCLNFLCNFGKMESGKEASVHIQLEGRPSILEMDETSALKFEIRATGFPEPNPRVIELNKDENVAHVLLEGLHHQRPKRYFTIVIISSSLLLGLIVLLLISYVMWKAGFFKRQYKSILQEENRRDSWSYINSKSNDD
Chain of α4β1 (P05556 21-798): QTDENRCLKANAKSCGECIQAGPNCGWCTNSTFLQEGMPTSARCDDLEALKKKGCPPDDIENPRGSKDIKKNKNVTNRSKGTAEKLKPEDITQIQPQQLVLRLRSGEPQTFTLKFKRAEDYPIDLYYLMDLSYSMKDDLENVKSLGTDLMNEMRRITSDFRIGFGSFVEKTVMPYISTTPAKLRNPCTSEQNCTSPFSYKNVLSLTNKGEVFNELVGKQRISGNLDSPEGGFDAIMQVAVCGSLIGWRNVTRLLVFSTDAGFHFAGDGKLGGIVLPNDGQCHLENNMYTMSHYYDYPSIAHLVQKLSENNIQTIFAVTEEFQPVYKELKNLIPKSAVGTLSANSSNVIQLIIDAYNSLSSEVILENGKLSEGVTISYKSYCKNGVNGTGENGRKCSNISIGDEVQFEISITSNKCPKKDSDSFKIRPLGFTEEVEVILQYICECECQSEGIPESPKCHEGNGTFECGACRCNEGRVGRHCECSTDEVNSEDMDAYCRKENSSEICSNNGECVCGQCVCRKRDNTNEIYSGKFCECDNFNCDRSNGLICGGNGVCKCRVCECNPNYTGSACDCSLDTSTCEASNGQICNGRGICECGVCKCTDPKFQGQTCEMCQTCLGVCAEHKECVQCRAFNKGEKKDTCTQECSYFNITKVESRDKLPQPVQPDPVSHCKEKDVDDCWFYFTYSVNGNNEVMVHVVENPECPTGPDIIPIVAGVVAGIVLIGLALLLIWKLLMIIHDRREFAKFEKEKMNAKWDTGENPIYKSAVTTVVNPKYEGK
Procedure: These 21 compounds were further analyzed for specificity and toxicity. […] The assay was carried out in a manner similar to the collagen adhesion assay described above except that […] with VCAM-1/Ig instead of collagen. Binding to VCAM-1 was dependent on surface expression of α4β1.

T1 sequence (P17301 30-1181): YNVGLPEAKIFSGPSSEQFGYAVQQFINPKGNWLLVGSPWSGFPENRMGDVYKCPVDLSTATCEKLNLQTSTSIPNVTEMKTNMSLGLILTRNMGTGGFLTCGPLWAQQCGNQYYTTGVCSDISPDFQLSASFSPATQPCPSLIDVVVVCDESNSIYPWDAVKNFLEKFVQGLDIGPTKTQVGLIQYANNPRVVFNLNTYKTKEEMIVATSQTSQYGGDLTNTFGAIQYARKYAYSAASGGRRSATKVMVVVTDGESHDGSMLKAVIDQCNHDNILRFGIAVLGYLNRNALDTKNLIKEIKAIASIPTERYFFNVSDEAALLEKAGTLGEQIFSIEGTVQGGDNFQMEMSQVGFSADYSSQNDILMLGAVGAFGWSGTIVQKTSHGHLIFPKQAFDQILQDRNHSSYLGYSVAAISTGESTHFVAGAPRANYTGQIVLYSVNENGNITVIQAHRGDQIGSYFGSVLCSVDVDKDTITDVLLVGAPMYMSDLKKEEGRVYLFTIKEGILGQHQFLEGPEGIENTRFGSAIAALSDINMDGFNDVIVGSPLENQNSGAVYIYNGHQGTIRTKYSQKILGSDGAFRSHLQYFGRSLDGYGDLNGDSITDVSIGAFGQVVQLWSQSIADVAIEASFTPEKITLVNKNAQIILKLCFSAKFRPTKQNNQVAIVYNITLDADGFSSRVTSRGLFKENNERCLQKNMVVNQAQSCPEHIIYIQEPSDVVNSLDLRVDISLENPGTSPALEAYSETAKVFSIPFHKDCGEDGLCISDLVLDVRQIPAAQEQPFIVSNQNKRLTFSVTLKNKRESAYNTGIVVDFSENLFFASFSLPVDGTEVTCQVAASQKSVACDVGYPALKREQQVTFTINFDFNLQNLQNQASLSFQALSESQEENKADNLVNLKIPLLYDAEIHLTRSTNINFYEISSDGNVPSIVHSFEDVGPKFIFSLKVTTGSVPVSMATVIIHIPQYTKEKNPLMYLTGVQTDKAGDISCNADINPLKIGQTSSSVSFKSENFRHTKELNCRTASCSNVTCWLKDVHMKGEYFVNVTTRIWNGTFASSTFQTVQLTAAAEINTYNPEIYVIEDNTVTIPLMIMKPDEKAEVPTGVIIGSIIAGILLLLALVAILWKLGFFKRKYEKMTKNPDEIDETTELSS
T1 sequence (P05556 21-798 partner): as the sequence (P05556 21-798) above

SMILES | pEC50 (α2β1) | TOXICITY LD50 (Jurkat cells) | pEC50 (α4β1)
CC(C)(C)c1ccc(Sc2ccccc2CNCCN2CCCC2)cc1.O=C(O)C(F)(F)F.O=C(O)C(F)(F)F [Cmpd AB] | 4.89 | >40 µM | < 4.70
CN(CCCNCc1ccccc1Sc1c(Cl)cccc1Cl)c1ccccc1.O=C(O)C(F)(F)F.O=C(O)C(F)(F)F [Cmpd AD] | 5.70 | 3 µM | < 4.70
CN(CCCNCc1ccccc1Sc1ccc2ccccc2c1)c1ccccc1.O=C(O)C(F)(F)F.O=C(O)C(F)(F)F [Cmpd AE] | 5.15 | 30 µM | < 4.70
O=C(O)C(F)(F)F.O=C(O)C(F)(F)F.c1ccc(CN2CCC(NCc3ccccc3Sc3ccc4ccccc4c3)CC2)cc1 [Cmpd AF] | 5.22 | 35 µM | < 4.70
CCN1CCCC1CNCc1ccccc1Sc1ccc2ccccc2c1.O=C(O)C(F)(F)F.O=C(O)C(F)(F)F (stereo not drawn) [Cmpd AG] | 5.15 | 35 µM | < 4.70
O=C(O)C(F)(F)F.O=C(O)C(F)(F)F.c1ccc(Sc2ccc3ccccc3c2)c(CNCCN2CCCC2)c1 [Cmpd AH] | 5.05 | 38 µM | < 4.70
CN(C)CCCNCc1ccccc1Sc1ccc2ccccc2c1.O=C(O)C(F)(F)F.O=C(O)C(F)(F)F [Cmpd AI] | 5.22 | 33 µM | < 4.70
FC(F)(F)Oc1ccc(Sc2ccccc2CNC2CCN(Cc3ccccc3)CC2)cc1.O=C(O)C(F)(F)F.O=C(O)C(F)(F)F [Cmpd AJ] | 5.10 | 38 µM | < 4.70
CN(CCCNCc1ccccc1Sc1cccc(C(F)(F)F)c1)c1ccccc1.O=C(O)C(F)(F)F.O=C(O)C(F)(F)F [Cmpd AK] | 5.05 | 35 µM | < 4.70
CSc1ccc(Sc2ccccc2CNCCCN(C)c2ccccc2)cc1.O=C(O)C(F)(F)F.O=C(O)C(F)(F)F [Cmpd AL] | 5.10 | 20 µM | < 4.70
CCN1CCN(c2cc(-c3ccc(Sc4ccccc4C(C)C)c(C(F)(F)F)c3)ccn2)CC1.O=C(O)C(F)(F)F.O=C(O)C(F)(F)F [Cmpd AN] | 4.77 | >40 µM | < 4.70
O=C(/C=C/c1ccc(Sc2ccc(Cl)cc2Cl)c([N+](=O)[O-])c1)N1CCNCC1 [Cmpd A] | 4.85 | >40 µM | 4.77
O=C(/C=C/c1ccc(Sc2ccc3c(c2)OCCO3)c([N+](=O)[O-])c1)N1CCNCC1 [Cmpd B] | 4.77 | >40 µM | < 4.70
CC(C)c1ccc(Sc2ccc(N)cc2Cl)cc1 [Cmpd E] | 4.80 | >40 µM | < 4.70
CC(=O)N1CCN(C(=O)C2CC2c2ccc(Sc3ccccc3C(C)C)c(Cl)c2Cl)CC1 (stereo not drawn) [Cmpd G] | 4.80 | >40 µM | < 4.70
O=C(/C=C/c1ccc(Sc2cccc(N3CCC(N4CCCC4)CC3)c2)c(Cl)c1Cl)NCCCN1CCCC1=O [Cmpd J] | 5.10 | >40 µM | < 4.70
Cl.O=C1CCCN1CCCNCc1ccc(Sc2cccc(Cl)c2Cl)c(Cl)c1 [Cmpd M] | 5.10 | 25 µM | < 4.70
CN1CCCN(C(=O)/C=C/c2ccc(Sc3ccc4c(ccn4C)c3)c(Cl)c2Cl)CC1.O=C(O)C(F)(F)F [Cmpd T] | 5.40 | 25 µM | 4.82
CN1CCN(C(=O)/C=C/c2ccc(Sc3ccc(Cl)cc3Cl)c(Cl)c2)CC1 [Cmpd U] | 4.82 | >40 µM | < 4.70
Nc1ccc(SCc2ccc(Cl)cc2Cl)c(Cl)c1 [Cmpd X] | 5.10 | 30 µM | < 4.70
N[C@@H]1Cc2ccccc2O[C@@H]1c1ccc2c(c1)CCO2 [Cmpd Y] | 5.15 | 25 µM | < 4.70
